Data reported in publication PMC10730852 (Communications Biology, 2023).
“And” between values parts separate entries of the source, which are not always exact repeats. Identical values can stand only once. Like-named read-outs stand apart in the source and are kept apart here.

What was measured:
Cph [1] = experiment: Coupled enzyme assay and kinetics of Cph; assay type: biochemical, Saccharothrix mutabilis subsp. capreolus; conditions: for absorbance at 340 nm, Average of triplicate: substrate + ATP
Protocol: (§1) The phosphorylation reaction was measured by a coupled enzyme assay as following. […] The reactions were mixed well in a final volume of 200 μL in 96-well plates. The Cph001 activity was assayed by determining the oxidation of NADH at 340 nm. The reaction buffer and enzyme concentration of the Cph reaction was followed by previous study. The 340 nm absorbance changes were detected at 30 °C for every 1 min at a time in 15 min on an EPOCH Microplate Reader (BioTek). All reactions were carried out in triplicate.

Cph001 [2] = experiment: Coupled enzyme assay and Michaelis-Menten kinetics of Cph001; assay type: biochemical, Streptosporangium roseum; conditions: for initial velocity, Figure 3c ii, Triplicate: 2 mM GTP; for initial velocity, Figure 3c i, Triplicate: 2 mM ATP; for absorbance at 340 nm, Average of triplicate: 2 mM substrate + ATP
Protocol: as §1
The initial velocity data were plotted against substrate concentrations and fit the Michaelis-Menten equation. The Km and Vmax values were calculated based on the Michaelis-Menten equation. GraphPad Prism was used for statistical data analysis. All reactions were carried out in triplicate.

Cph [3] = tested on: Cph; set-up: method as in Previous kinetic studies; conditions: ATP as a phosphate donor; ref Previous kinetic studies; read-out: Km value of Cph for CMN IIA; cited from earlier work
E. coli/cph003 = experiment: Disk diffusion assay; assay type: cell-based, E. coli BL21 Rosetta (DE3)
Protocol: (§2) The E. coli BL21 Rosetta (DE3) strains containing pET22b, and its carrying cph, cph001, cph002, cph003, aph(3′)-Ia, and mphB plasmids were cultured overnight. The cells, respectively, were then diluted to 0.1 OD600 in molten LB agar with 100 μg/mL ampicillin and 500 μM IPTG for the disk diffusion assay. The cells with ampicillin and IPTG were mixed well with molten LB agar and then poured into 10 cm diameter Petri dishes. The 7 mm disks were placed onto the LB agar and gently loaded with varying quantities of CMN IIA, CMN IIB, VIO, Kan, and Ery, ranging from 0 to 200 μg. The Petri dishes were placed in the incubator at 37 °C and the inhibition zones were observed after 24 hr.

E. coli/cph001 = experiment: Disk diffusion assay; assay type: cell-based, E. coli BL21 Rosetta (DE3)
Protocol: as §2

E. coli/cph002 = experiment: Disk diffusion assay; assay type: cell-based, E. coli BL21 Rosetta (DE3)
Protocol: as §2

E. coli/cph = experiment: Disk diffusion assay; assay type: cell-based, E. coli BL21 Rosetta (DE3)
Protocol: as §2

Cph001 [4] = target: T1, Cph001 (Streptosporangium roseum, UniProt D2B3F1); experiment: Isothermal titration calorimetry (ITC) analysis of Cph001; assay type: binding
T1 sequence (D2B3F1 1-286): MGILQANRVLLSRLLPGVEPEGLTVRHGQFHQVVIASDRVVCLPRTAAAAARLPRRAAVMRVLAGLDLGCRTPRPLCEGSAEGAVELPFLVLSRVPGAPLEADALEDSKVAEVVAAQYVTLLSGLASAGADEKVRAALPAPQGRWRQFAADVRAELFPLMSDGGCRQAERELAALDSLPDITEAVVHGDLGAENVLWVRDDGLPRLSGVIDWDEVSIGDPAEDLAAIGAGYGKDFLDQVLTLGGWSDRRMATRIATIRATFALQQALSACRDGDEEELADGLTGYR
Excerpt: The integrated heat areas constitute a differential binding curve that was fitted with a standard single-site binding model by Origin 7.

[5] = tested on: E. coli/pET-22b (Control); experiment: Disk diffusion assay; assay type: cell-based, E. coli BL21 Rosetta (DE3); conditions: Escherichia coli, 24 h, read-out: inhibition zones
Protocol: as §2, with “The 7 mm disks were placed onto the LB agar and gently loaded with varying quantities of CMN IIA, CMN IIB, VIO, Kan, and Ery, ranging from 0 to 200 μg.” left out

[6] = Escherichia coli, 24 h, read-out: inhibition zones

Compound: N=C1NCCC([C@@H]2NC(=O)/C(=C/NC(N)=O)NC(=O)[C@H](CNC(=O)C[C@@H](N)CCCN)NC(=O)[C@H](CO)NC(=O)[C@@H](N)CNC2=O)N1 (stereo in doubt) [CMN IIA]
- phosphorylation by Cph in couple enzyme assay (Cph [1]; CMN IIA and ATP, absorbance at 340 nm): decrease in absorbance at 340 nm
- absorbance at 340 nm, Average of triplicate (Cph [1]; time 00:00:00): 1.495
- absorbance at 340 nm, Average of triplicate (Cph [1]; time 00:01:00): 1.379
- absorbance at 340 nm, Average of triplicate (Cph [1]; time 00:02:00): 1.219
- absorbance at 340 nm, Average of triplicate (Cph [1]; time 00:03:00): 1.045
- absorbance at 340 nm, Average of triplicate (Cph [1]; time 00:04:00): 0.85
- absorbance at 340 nm, Average of triplicate (Cph [1]; time 00:05:00): 0.6453
- absorbance at 340 nm, Average of triplicate (Cph [1]; time 00:06:00): 0.4483
- absorbance at 340 nm, Average of triplicate (Cph [1]; time 00:07:00): 0.303
- absorbance at 340 nm, Average of triplicate (Cph [1]; time 00:08:00): 0.2213
- absorbance at 340 nm, Average of triplicate (Cph [1]; time 00:09:00): 0.1687
- absorbance at 340 nm, Average of triplicate (Cph [1]; time 00:10:00): 0.136
- absorbance at 340 nm, Average of triplicate (Cph [1]; time 00:11:00): 0.1227
- absorbance at 340 nm, Average of triplicate (Cph [1]; time 00:12:00): 0.1173
- absorbance at 340 nm, Average of triplicate (Cph [1]; time 00:13:00): 0.1173
- absorbance at 340 nm, Average of triplicate (Cph [1]; time 00:14:00): 0.1173
- absorbance at 340 nm, Average of triplicate (Cph [1]; time 00:15:00): 0.1177
- initial velocity, Figure 3c ii, Triplicate (Cph001 [2]; 0.4 mM CMN IIA): 5.814e-5 and 4.992e-5 and 4.228e-5
- initial velocity, Figure 3c i, Triplicate (Cph001 [2]; 0.5 mM CMN IIA): 0.0001245 and 0.0001897 and 0.0001595
- initial velocity, Figure 3c ii, Triplicate (Cph001 [2]; 0.5 mM CMN IIA): 6.636e-5 and 7.341e-5 and 7.765e-5
- initial velocity, Figure 3c i, Triplicate (Cph001 [2]; 0.7 mM CMN IIA): 0.0002053 and 0.000222 and 0.0002263
- initial velocity, Figure 3c ii, Triplicate (Cph001 [2]; 0.7 mM CMN IIA): 9.514e-5 and 7.693e-5 and 6.952e-5
- initial velocity, Figure 3c i, Triplicate (Cph001 [2]; 1 mM CMN IIA): 0.0002288 and 0.0002649 and 0.0003551
- initial velocity, Figure 3c ii, Triplicate (Cph001 [2]; 1 mM CMN IIA): 0.0001233 and 0.000121 and 0.0001065
- initial velocity, Figure 3c i, Triplicate (Cph001 [2]; 2 mM CMN IIA): 0.0003304 and 0.0004291 and 0.0004233
- initial velocity, Figure 3c ii, Triplicate (Cph001 [2]; 2 mM CMN IIA): 0.0002014 and 0.0002003 and 0.0001825
- phosphorylation by Cph001 in couple enzyme assay (Cph001 [2]; 2 mM antibiotic substrate, ATP as phosphate donor, absorbance at 340 nm): decrease in absorbance at 340 nm
- initial velocity, Figure 3c i, Triplicate (Cph001 [2]; 4 mM CMN IIA): 0.0003294 and 0.0004402 and 0.000432
- initial velocity, Figure 3c ii, Triplicate (Cph001 [2]; 4 mM CMN IIA): 0.0001744 and 0.0002267 and 0.0002057
- initial velocity, Figure 3c i, Triplicate (Cph001 [2]; 6 mM CMN IIA): 0.0003263 and 0.0004514 and 0.0003777
- initial velocity, Figure 3c ii, Triplicate (Cph001 [2]; 6 mM CMN IIA): 0.0002402 and 0.000232 and 0.000183
- Km (Cph001 [2]; ATP as phosphate donor (2 mM), pseudo-first-order conditions, mean ± SEM, n = 3, read-out: apparent Michaelis constant (Km) of CMN IIA): 880 ± 200 µM
- Km (Cph001 [2]; ATP series, first manuscript version as quoted by Reviewer #1, read-out: measured Km of CMN IIA): 876 µM
- Km (Cph001 [2]; GTP series, first manuscript version as quoted by Reviewer #1, read-out: measured Km of CMN IIA): 1400 µM
- Km (Cph001 [2]; saturating GTP as phosphate donor (2 mM), mean ± SEM, n = 3, read-out: apparent Km of CMN IIA): 1400 ± 240 µM
- absorbance at 340 nm, Average of triplicate (Cph001 [2]; time 00:00:00): 1.495
- absorbance at 340 nm, Average of triplicate (Cph001 [2]; time 00:01:00): 1.277
- absorbance at 340 nm, Average of triplicate (Cph001 [2]; time 00:02:00): 0.9337
- absorbance at 340 nm, Average of triplicate (Cph001 [2]; time 00:03:00): 0.6673
- absorbance at 340 nm, Average of triplicate (Cph001 [2]; time 00:04:00): 0.5687
- absorbance at 340 nm, Average of triplicate (Cph001 [2]; time 00:05:00): 0.52
- absorbance at 340 nm, Average of triplicate (Cph001 [2]; time 00:06:00): 0.3975
- absorbance at 340 nm, Average of triplicate (Cph001 [2]; time 00:07:00): 0.2841
- absorbance at 340 nm, Average of triplicate (Cph001 [2]; time 00:08:00): 0.2044
- absorbance at 340 nm, Average of triplicate (Cph001 [2]; time 00:09:00): 0.1613
- absorbance at 340 nm, Average of triplicate (Cph001 [2]; time 00:10:00): 0.1364
- absorbance at 340 nm, Average of triplicate (Cph001 [2]; time 00:11:00): 0.1231
- absorbance at 340 nm, Average of triplicate (Cph001 [2]; time 00:12:00): 0.1177
- absorbance at 340 nm, Average of triplicate (Cph001 [2]; time 00:13:00): 0.1173
- absorbance at 340 nm, Average of triplicate (Cph001 [2]; time 00:14:00): 0.1173
- absorbance at 340 nm, Average of triplicate (Cph001 [2]; time 00:15:00): 0.1177
- Km (Cph [3]): 460 µM
- resistance in disk diffusion assay (E. coli/cph003; E. coli harboring cph003): becomes resistant
- zone of inhibition at 12.5 µg/disc (E. coli/cph003; [6]): 13 mm
- zone of inhibition at 50 µg/disc (E. coli/cph003; [6]): 16 mm
- zone of inhibition at 100 µg/disc (E. coli/cph003; [6]): 20 mm
- zone of inhibition at 200 µg/disc (E. coli/cph003; [6]): 22 mm
- resistance in disk diffusion assay (E. coli/cph001; E. coli harboring cph001): becomes resistant
- zone of inhibition at 12.5 µg/disc (E. coli/cph001; [6]): 9.5 mm
- zone of inhibition at 50 µg/disc (E. coli/cph001; [6]): 13 mm
- zone of inhibition at 100 µg/disc (E. coli/cph001; [6]): 15 mm
- zone of inhibition at 200 µg/disc (E. coli/cph001; [6]): 18 mm
- resistance in disk diffusion assay (E. coli/cph002; E. coli harboring cph002): becomes resistant
- zone of inhibition at 12.5 µg/disc (E. coli/cph002; [6]): 14 mm
- zone of inhibition at 50 µg/disc (E. coli/cph002; [6]): 17 mm
- zone of inhibition at 100 µg/disc (E. coli/cph002; [6]): 19.5 mm
- zone of inhibition at 200 µg/disc (E. coli/cph002; [6]): 23 mm
- resistance in disk diffusion assay (E. coli/cph; E. coli harboring cph): becomes resistant
- zone of inhibition at 50 µg/disc (E. coli/cph; [6]): 11 mm
- zone of inhibition at 100 µg/disc (E. coli/cph; [6]): 13 mm
- zone of inhibition at 200 µg/disc (E. coli/cph; [6]): 15.5 mm
- Kd (Cph001 [4]): 1240 ± 80 nM
- zone of inhibition at 12.5 µg/disc [5]: 17 mm
- zone of inhibition at 50 µg/disc [5]: 22 mm
- zone of inhibition at 100 µg/disc [5]: 24 mm
- zone of inhibition at 200 µg/disc [5]: 27.5 mm
